Holding throughout (assay): relative viability (nuclei count vs DMSO), 5 days (fraction); higher = more cells survive
Compound in test [1]: Cn1cnc2c(F)c(Nc3ccc(Br)cc3Cl)c(C(=O)NOCCO)cc21 [Selumetinib] + CC1(C)CCC(c2ccc(Cl)cc2)=C(CN2CCN(c3ccc(C(=O)NS(=O)(=O)c4ccc(N[C@H](CCN5CCOCC5)CSc5ccccc5)c(S(=O)(=O)C(F)(F)F)c4)cc3)CC2)C1 [Navitoclax] (partner 0.5 µM)
In short, it runs like this:
(§1)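 Lung cancer cell lines in 1536-well plates got either a single drug or a fixed anchor-drug dose together with five library-drug doses (not always all listed) in √10 steps, by pin tool, on the day after seeding. Nuclei were counted after 5 days, and relative viability is the treated-to-vehicle ratio of nuclei counts. Values are medians of duplicate plates.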

Compound in test [2]: CC1(C)CCC(CN2CCN(c3ccc(C(=O)NS(=O)(=O)c4ccc(NCC5CCOCC5)c([N+](=O)[O-])c4)c(Oc4cnc5[nH]ccc5c4)c3)CC2)=C(c2ccc(Cl)cc2)C1 [Venetoclax] + C[C@@H](Oc1cc(-c2cnn(C3CCNCC3)c2)cnc1N)c1c(Cl)ccc(F)c1Cl [Crizotinib] (partner 1 µM)
In short, it runs like this: as §1

Compound in test [3]: Cn1cnc2c(F)c(Nc3ccc(Br)cc3Cl)c(C(=O)NOCCO)cc21 [Selumetinib] + CCNC(=O)c1noc(-c2cc(C(C)C)c(O)cc2O)c1-c1ccc(CN2CCOCC2)cc1 [Luminespib] (partner 0.01 µM)
In outline: as §1

Compound in test [4]: Cn1cnc2c(F)c(Nc3ccc(Br)cc3Cl)c(C(=O)NOCCO)cc21 [Selumetinib] + Cc1nc(Nc2ncc(C(=O)Nc3c(C)cccc3Cl)s2)cc(N2CCN(CCO)CC2)n1 [Dasatinib] (partner 0.075 µM)
In outline: as §1

For eight cell lines, relative viability results are on record in the supplement of paper PMC10307832.

Regarding ChaGo-K-1, the relative viability in test [1] (first compound 0.02 µM) came to 0.878; in test [1] (first compound 0.06325 µM) it was 0.956; in test [1] (first compound 0.2 µM) it was 0.911; in test [1] (first compound 0.6325 µM), 1.23; in test [2] (first compound 0.01 µM) it was 1.1; in test [2] (first compound 0.03162 µM), 1.27. For the same cell line, the relative viability in test [2] (first compound 0.3162 µM) amounted to 1.16; in test [2] (first compound 1 µM), 1.08; in test [3] (first compound 0.02 µM), 0.531; in test [3] (first compound 0.06325 µM) it was 0.48; in test [3] (first compound 0.2 µM), 0.731; in test [3] (first compound 0.6325 µM), 0.568. Besides, the relative viability in test [4] (first compound 0.02 µM) came out at 0.587; in test [4] (first compound 0.06325 µM), 0.615; in test [4] (first compound 0.2 µM), 0.664; in test [4] (first compound 0.6325 µM), 0.592.
In the case of EBC-1, the relative viability worked out at 0.225 in test [1] (first compound 0.02 µM); 0.19 in test [1] (first compound 0.06325 µM); 0.193 in test [1] (first compound 0.2 µM); 0.138 in test [1] (first compound 0.6325 µM); 0.213 in test [2] (first compound 0.01 µM); 0.18 in test [2] (first compound 0.03162 µM). The relative viability in test [2] (first compound 0.1 µM) turned out to be 0.207; in test [2] (first compound 0.3162 µM), 0.211; in test [2] (first compound 1 µM) it was 0.146.
EKVX: the relative viability in test [1] (first compound 0.02 µM) stood at 0.689; in test [1] (first compound 0.06325 µM) it was 0.82; in test [1] (first compound 0.2 µM), 0.559; in test [1] (first compound 0.6325 µM), 0.487; in test [2] (first compound 0.01 µM), 0.834; in test [2] (first compound 0.03162 µM) it was 0.985. The relative viability in test [2] (first compound 0.1 µM) stood at 0.897; in test [2] (first compound 0.3162 µM), 0.895; in test [2] (first compound 1 µM) it was 0.882; in test [3] (first compound 0.02 µM), 0.931; in test [3] (first compound 0.06325 µM) it was 0.587; in test [3] (first compound 0.2 µM), 0.657. Besides, the relative viability turned out to be 0.665 in test [3] (first compound 0.6325 µM); 0.469 in test [4] (first compound 0.02 µM); 0.567 in test [4] (first compound 0.06325 µM); 0.371 in test [4] (first compound 0.2 µM); 0.276 in test [4] (first compound 0.6325 µM).
For EMC-BAC-2, the relative viability in test [1] (first compound 0.02 µM) stood at 0.964; in test [1] (first compound 0.06325 µM) it was 0.989; in test [1] (first compound 0.2 µM), 1.07; in test [1] (first compound 0.6325 µM), 1.06; in test [2] (first compound 0.01 µM), 0.687; in test [2] (first compound 0.03162 µM), 0.774. The relative viability was determined as 0.779 in test [2] (first compound 0.1 µM); 0.775 in test [2] (first compound 0.3162 µM); 0.71 in test [2] (first compound 1 µM); 1.19 in test [3] (first compound 0.02 µM); 1.18 in test [3] (first compound 0.06325 µM); 1.1 in test [3] (first compound 0.2 µM). Besides, the relative viability stood at 1.12 in test [3] (first compound 0.6325 µM); 0.352 in test [4] (first compound 0.02 µM); 0.419 in test [4] (first compound 0.06325 µM); 0.379 in test [4] (first compound 0.2 µM); 0.391 in test [4] (first compound 0.6325 µM).
As to EPLC-272H, the relative viability in test [1] (first compound 0.02 µM) worked out at 0.791; in test [1] (first compound 0.06325 µM), 0.942; in test [1] (first compound 0.2 µM) it was 0.76; in test [1] (first compound 0.6325 µM), 0.843; in test [2] (first compound 0.03162 µM), 0.682; in test [2] (first compound 0.1 µM) it was 0.872. Also, the relative viability was found to be 1.11 in test [2] (first compound 0.3162 µM); 0.897 in test [2] (first compound 1 µM); 0.22 in test [3] (first compound 0.02 µM); 0.276 in test [3] (first compound 0.06325 µM); 0.203 in test [3] (first compound 0.2 µM); 0.171 in test [3] (first compound 0.6325 µM). Moreover, the relative viability stood at 0.294 in test [4] (first compound 0.02 µM), 0.297 in test [4] (first compound 0.06325 µM), 0.355 in test [4] (first compound 0.2 µM) and 0.174 in test [4] (first compound 0.6325 µM).
Consider H3255, for which the relative viability in test [1] (first compound 0.02 µM) was 0.428; in test [1] (first compound 0.06325 µM), 0.487; in test [1] (first compound 0.2 µM), 0.342; in test [1] (first compound 0.6325 µM), 0.436; in test [2] (first compound 0.01 µM), 0.815; in test [2] (first compound 0.03162 µM) it was 0.824. Further, the relative viability came out at 0.837 in test [2] (first compound 0.1 µM); 0.773 in test [2] (first compound 0.3162 µM); 1.05 in test [2] (first compound 1 µM); 1.04 in test [3] (first compound 0.02 µM); 0.918 in test [3] (first compound 0.06325 µM); 1.05 in test [3] (first compound 0.2 µM). The relative viability is 0.87 in test [3] (first compound 0.6325 µM); 0.41 in test [4] (first compound 0.02 µM); 0.358 in test [4] (first compound 0.06325 µM); 0.329 in test [4] (first compound 0.2 µM); 0.344 in test [4] (first compound 0.6325 µM).
Turning to HARA, the relative viability in test [1] (first compound 0.02 µM) is 1.17; in test [1] (first compound 0.06325 µM) it was 1.13; in test [1] (first compound 0.2 µM), 1.09; in test [1] (first compound 0.6325 µM), 1.1; in test [2] (first compound 0.01 µM), 0.946; in test [2] (first compound 0.03162 µM), 1.07. Further, the relative viability is 0.603 in test [2] (first compound 0.1 µM); 1.04 in test [2] (first compound 0.3162 µM); 1.08 in test [2] (first compound 1 µM); 0.708 in test [3] (first compound 0.02 µM); 0.783 in test [3] (first compound 0.06325 µM); 0.536 in test [3] (first compound 0.2 µM). In addition, the relative viability in test [3] (first compound 0.6325 µM) amounted to 0.168; in test [4] (first compound 0.02 µM), 0.28; in test [4] (first compound 0.06325 µM), 0.288; in test [4] (first compound 0.2 µM) it was 0.247; in test [4] (first compound 0.6325 µM) it was 0.271.
Consider HCC-15, for which the relative viability in test [1] (first compound 0.02 µM) was 0.507; in test [1] (first compound 0.06325 µM) it was 0.397; in test [1] (first compound 0.2 µM), 0.32; in test [1] (first compound 0.6325 µM), 0.199; in test [2] (first compound 0.01 µM), 0.814; in test [2] (first compound 0.03162 µM), 0.839. The relative viability in test [2] (first compound 0.1 µM) stood at 0.709; in test [2] (first compound 0.3162 µM) it was 0.742; in test [2] (first compound 1 µM), 0.617; in test [3] (first compound 0.02 µM), 0.199; in test [3] (first compound 0.06325 µM) it was 0.19; in test [3] (first compound 0.2 µM), 0.158. Moreover, the relative viability in test [3] (first compound 0.6325 µM) turned out to be 0.0809; in test [4] (first compound 0.02 µM), 0.296; in test [4] (first compound 0.06325 µM), 0.231; in test [4] (first compound 0.2 µM) it was 0.19; in test [4] (first compound 0.6325 µM), 0.146.
